# Source: BindingDB's records for doi:10.1016/s0960-894x(00)00138-4 (Berlex Biosciences, 2000)
# Target: Cationic trypsin (Bos taurus)
# Experiment: In vitro inhibition of bovine trypsin.
row,Compound,Ki
1,CCOC(=O)c1cc2ccc(OC3CCN(C(C)=N)CC3)cc2n1Cc1ccc2ccc(C(=N)N)cc2c1 [1-(7-Carbamimidoyl-naphthalen-2-ylmethyl)-6-[1-(1-imino-ethyl)-piperidin-4-yloxy]-1H-indole-2-carboxylic acid ethyl ester],20 nM
2,"CN(C)C(=O)COc1ccc2c3ccccc3n(Cc3ccc4ccc(C(=N)N)cc4c3)c2c1 [2-[9-(7-Carbamimidoyl-naphthalen-2-ylmethyl)-9H-carbazol-2-yloxy]-N,N-dimethyl-acetamide]",90 nM
3,N=C(N)c1ccc(-n2ccc3ccc(NC(=O)c4cccc(C(=N)N)c4)cc32)cc1 [3-Carbamimidoyl-N-[1-(4-carbamimidoyl-phenyl)-1H-indol-6-yl]-benzamide],410 nM
4,N=C(N)c1ccc(-n2ccc3ccc(NCc4cccc(C(=N)N)c4)cc32)cc1 [3-{1-[4-amino(imino)methylphenyl]-1H-6-indolylaminomethyl}phenyl-iminomethanamine],1620 nM
5,N=C(N)c1ccc(-n2c3ccccc3c3ccc(OCc4ccc5ccc(C(=N)N)cc5c4)cc32)cc1 [7-[9-(4-Carbamimidoyl-phenyl)-9H-carbazol-2-yloxymethyl]-naphthalene-2-carboxamidine],510 nM
6,N=C(N)c1ccc(-n2ccc3ccc(NCc4ccc5ccc(C(=N)N)cc5c4)cc32)cc1 [7-{[1-(4-Carbamimidoyl-phenyl)-1H-indol-6-ylamino]-methyl}-naphthalene-2-carboxamidine],300 nM
